Like-named read-outs stand apart in the source and are kept apart here.
How the values were obtained:
[1] = tested on: anti-TNP IgE antibody production; experiment: IgE antibody production suppressive effect: anti-TNP IgE production by cultured spleen cells of TNP-KLH-immunized mouse; format: cell-based, BALB/C mouse; conditions: for Anti-TMP antibody production IgE, value in brackets (IgE production dependency on the antigen) / Anti-TMP antibody production IgE: TNP-KLH 10 ng/ml; for Anti-TMP antibody production IgE, value in brackets (IgE production dependency on the antigen): no addition 8.5; for Anti-TMP antibody production IgE: no addition 13.0
Experimental: (§1) An 8 weeks old BALB/C mouse (♀) was immunized by an intraperitoneal injection of 10 µg of TNP-KLH (trinitrophenyl-key hole limpet hemocyanine) and 2 mg of aluminum hydroxide gel, and after 3 weeks, 1 µg of TNP-KLH and 2 mg of aluminum hydroxide gel were boosted, and 4 weeks later, the spleen was enucleated.
(§2) The spleen cells (6 x 10⁶) were cultured together with 10 ng/ml of TNP-KLH, in the presence or non-presence of the compound of the present invention (10⁻⁵ to 10⁻⁷ M), in 1 ml of RPMI-1640 medium (containing 10% fetal bovine serum) for 2 days, followed by washing to remove the antigen and the drug, and the washed cells were resuspended in a fresh medium containing no antigen and further cultured for 5 days. All cultivations were performed under 5% CO₂ at 37°C. After completion of the culturing, the supernatant was recovered, and the concentration of anti-TNP IgE or anti-TNP IgG antibody was determined by an antigen and isotype specific immunoassay. […]
The values in the brackets ( ) indicate the values of the spontaneous IgE production amount observed when TNP-KLH was not added, and represent the IgE production dependency on the antigen.
(§3) The same experimental methods were used for the compounds shown below, and IgE antibody production suppressive effects were evaluated. […] (Exemplary compound VI - (1)): methyl (6,7-dimethoxy-2-naphthylthio)acetate (Exemplary compound V - (4)): N-(2-methoxycarbonylphenyl)-(6,7-dihydroxy-2-naphthylthio)acetamide (Exemplary compound V - (2)): N-tetrazolyl(6,7-dihydroxy-2-naphthylthio)acetamide Table 2

[2] = tested on: anti-TNP IgG; experiment: Anti-TNP IgG production by cultured spleen cells of TNP-KLH-immunized mouse; format: cell-based, BALB/C mouse; conditions: for Anti-TMP antibody production IgG: TNP-KLH 10 ng/ml, no addition 8.1
Experimental: as §1, §2, §3

[3] = tested on: peritoneal mast cells of rat; experiment: Histamine release from IgE-sensitized peritoneal mast cells, DNP-As antigen (allergic release); format: cell-based, Sprague-Dawley strain male rat
Experimental: (§4) To a Sprague-Dawley strain male rat (10 weeks or older) was intraperitoneally administered, under ether anesthesia, a diluted rat anti-DNP-As IgE serum at 2 ml/kg. After 16 hours, cells were recovered by washing intraperitoneally with a Tyrode solution containing 0.5% heparin (Ca⁺⁺, Mg⁺⁺, free). Mast cells (5 x 10⁴) separated by overlying in the 30% Ficoll/Tyrode solution and centrifugation were reliberated into the Tyrode solution (Ca⁺⁺, Mg⁺⁺) and incubated with the addition of the drug solution shown in Table 3-1, for 10 minutes, and then DNP-As and phosphatidylserine were added to final concentrations of 20 µg/ml and 25 µg/ml, respectively, followed by incubation for 10 minutes. The reaction was stopped by ice-cooling, and the histamine release in the supernatant was determined by fluorophotometry.

[4] = tested on: peritoneal mast cells of rat; experiment: Histamine release from peritoneal mast cells induced by Compound 48/80 (non-allergic release); format: cell-based, Sprague-Dawley strain male rat; conditions: for inhibition at 10 µM: 10⁻⁵ M
Experimental: as §4, with “fluorophotometry. Regarding the non-allergy release, 5 x 10⁴ of mast cells were investigated by incubation with 0.5 µg/ml of Compound 48/80 for 10 minutes, after the addition of the drug solution shown in Table 3-2.” for “fluorophotometry.”

[5] = tested on: Rat homologous PCA reaction; experiment: Rat homologous PCA reaction; format: in vivo, Sprague-Dawley strain male rat; conditions: p.o., 1 hour before antigen
Experimental: The back of a Sprague-Dawley strain male rat (6 - 8 w) was depilated, and at one site on both sides thereof, 0.1 ml of a rat anti-ovalbumin IgE serum diluted with physiological saline was intradermally injected under ether anesthesia. After 48 hours, 25 mg/kg of ovalbumin, 25 mg/kg of Evans Blue were intravenously administered to induce the PCA reaction, and after 30 minutes, the skin was peeled off, dipped in a mixture of 0.3% Na₂SO₄·10H₂O/Acetate (3:7), and the dye amount infiltrated was quantitated by absorbance at 620 nm. The drug listed in Table 4 was suspended in 5% gum arabic solution and orally administered 1 hour before the antigen administration.

[6] = target: T1, Lipoxygenase (Homo sapiens, UniProt P09917); experiment: Lipoxygenase inhibitory activity evaluation: LTB4 and 5-HETE production in A23187-stimulated whole blood; format: cell-based, healthy man; conditions: 10⁻⁵ M, A23187 25 µM
T1 construct: heparin-treated vein blood of a healthy person; from tissue; host or cells: human heparinised venous whole blood (leukocytes)
T1 sequence (P09917 1-674): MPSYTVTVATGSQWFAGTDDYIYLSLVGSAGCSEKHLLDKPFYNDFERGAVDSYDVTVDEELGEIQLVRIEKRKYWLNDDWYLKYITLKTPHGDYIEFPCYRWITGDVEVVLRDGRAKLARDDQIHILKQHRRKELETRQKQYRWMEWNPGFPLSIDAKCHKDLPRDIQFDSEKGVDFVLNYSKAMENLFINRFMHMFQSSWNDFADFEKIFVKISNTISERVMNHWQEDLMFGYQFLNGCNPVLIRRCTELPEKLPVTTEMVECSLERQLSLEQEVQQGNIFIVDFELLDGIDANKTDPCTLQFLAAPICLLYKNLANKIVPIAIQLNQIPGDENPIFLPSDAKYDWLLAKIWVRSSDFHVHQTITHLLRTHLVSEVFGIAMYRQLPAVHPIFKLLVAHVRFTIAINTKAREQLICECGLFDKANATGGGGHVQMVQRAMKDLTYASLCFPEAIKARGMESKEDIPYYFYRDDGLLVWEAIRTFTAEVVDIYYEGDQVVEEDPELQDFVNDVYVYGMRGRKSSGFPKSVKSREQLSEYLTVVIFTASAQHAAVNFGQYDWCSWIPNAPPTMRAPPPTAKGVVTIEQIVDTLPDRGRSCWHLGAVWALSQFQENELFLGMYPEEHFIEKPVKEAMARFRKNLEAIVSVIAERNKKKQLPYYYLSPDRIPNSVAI
Experimental: To 1 ml of heparin-treated vein blood of a healthy person without an administration of drugs was added 1 µl of a DMSO solution of the drug test sample listed in Table 5 (final 10⁻⁵ M), and after treatment at 37°C for 5 minutes, 5 µl of a DMSO solution of A23187 was added (final 25 µM) and the treatment carried out at 37°C for 15 minutes, followed by ice-cooling. After the addition of 10 µl of a DMSO solution of 100 ng of 15-HETE as the internal standard substance for quantitation, 0.8 ml of acetonitrile was added, and the precipitates formed were removed by centrifugation. Then, LTB₄ and 5-HETE in the supernatant were subjected to HPLC separation and quantitation (ref. F.J. Sweeney, et al., Prostaglandins Leukotrienes & Med., 28, 73 (1987)).

SMILES: COC(=O)CSc1ccc2cc(O)c(O)cc2c1 [Exemplary compound IV-(1), Methyl (6,7-dihydroxy-2-naphthylthio)acetate]
- suppression of anti-TNP IgE antibody production (in words) ([1]; 10⁻⁵ to 10⁻⁷ M): suppressed the anti-TNP IgE antibody production dose-dependency
- Anti-TMP antibody production IgE, value in brackets (IgE production dependency on the antigen) ([1]; 10⁻⁶ M): 1.0 ng/mL
- Anti-TMP antibody production IgE ([1]; 10⁻⁶ M): 5.5 ng/mL
- Anti-TMP antibody production IgE, value in brackets (IgE production dependency on the antigen) ([1]; 10⁻⁷ M): 2.5 ng/mL
- Anti-TMP antibody production IgE ([1]; 10⁻⁷ M): 7.5 ng/mL
- suppressive ratio (antigen-dependent IgE production) ([1]; antigen-dependent IgE production compared with spontaneous IgE production): 70 - 90%
- suppressive effect against the production of anti-TNP IgG (in words) [2]: substantially no suppressive effect
- Anti-TMP antibody production IgG ([2]; 10⁻⁶ M): 7.3 µg/mL
- Anti-TMP antibody production IgG ([2]; 10⁻⁷ M): 7.5 µg/mL
- suppressive action against allergy histamine release (in words) [3]: suppressive actions
- suppressive action against non-allergy histamine release (in words) [4]: weak suppressive actions
- inhibition at 100 µM ([4]; Rattus norvegicus, Mast cell, 10 min, Experiment 1, 10⁻⁴ M, Compound 48/80 0.5 µg/ml, read-out: Inhibitory ratio (%) histamine release): 23%
- inhibition at 10 µM ([4]; Rattus norvegicus, Mast cell, 10 min, Experiment 1, Compound 48/80 0.5 µg/ml, read-out: Inhibitory ratio (%) histamine release): 10.5%
- inhibition at 1 µM ([4]; Rattus norvegicus, Mast cell, 10 min, Experiment 1, 10⁻⁶ M, Compound 48/80 0.5 µg/ml, read-out: Inhibitory ratio (%) histamine release): -1.9%
- inhibition at 10 µM ([4]; Rattus norvegicus, Mast cell, 10 min, Experiment 2, Compound 48/80 0.5 µg/ml, read-out: Inhibitory ratio (%) histamine release): 2%
- Suppressive ratio (%) Experiment 1 ([5]; 25 mg/kg): 14.8%
- Suppressive ratio (%) Experiment 2 ([5]; 25 mg/kg): 24.2%
- Suppressive ratio (%) Experiment 2 ([5]; 50 mg/kg): 31.3%
- 5-HETE (Inhibitory ratio %) [6]: 60%
- LTB₄ (Inhibitory ratio %) [6]: 74%
- Amount of LTB₄ produced ([6]; no addition 125): 32 ng/ml/plasma
- Amount of 5-HETE produced ([6]; no addition 130): 52 ng/ml/plasma

— patent EP0419676B1, “THIONAPHTHALENE DERIVATIVES, METHOD OF PRODUCING THE SAME, AND ANTIALLERGIC AGENT CONTAINING THE SAME” (TEIJIN LIMITED, priority 1989, dated 1990)
